# Data from ChEMBL document CHEMBL5465560, “Selectivity Literature for EUbOPEN Chemogenomic Library” (2024).
# Assays:
# [1] = target: T1, Cyclin-dependent kinase-like 2 (Homo sapiens) (UniProt Q92772); test: Selectivity interaction (KinomeScan (DiscoverX)) EUB0000595a CDKL2; details: at 10 µM
# T1 sequence (whole entry): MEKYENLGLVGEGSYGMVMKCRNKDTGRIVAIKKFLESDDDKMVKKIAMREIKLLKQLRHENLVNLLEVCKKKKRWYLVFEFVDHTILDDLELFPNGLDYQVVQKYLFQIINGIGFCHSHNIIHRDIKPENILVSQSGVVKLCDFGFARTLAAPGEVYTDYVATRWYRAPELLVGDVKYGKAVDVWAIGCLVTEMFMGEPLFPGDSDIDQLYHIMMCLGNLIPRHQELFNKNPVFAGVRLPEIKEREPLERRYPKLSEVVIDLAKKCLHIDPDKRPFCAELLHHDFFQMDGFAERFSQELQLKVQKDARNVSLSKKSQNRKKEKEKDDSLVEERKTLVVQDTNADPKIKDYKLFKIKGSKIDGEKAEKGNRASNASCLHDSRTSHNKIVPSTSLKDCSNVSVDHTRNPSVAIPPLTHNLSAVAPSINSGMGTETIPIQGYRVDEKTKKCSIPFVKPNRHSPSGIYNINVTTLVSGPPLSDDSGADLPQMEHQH
# [2] = target: 5'-AMP-activated protein kinase catalytic subunit alpha-1 (Homo sapiens, UniProt Q13131); test: Selectivity interaction (KinomeScan (DiscoverX)) EUB0000595a PRKAA1; details: at 10 µM
# Sequence of 5'-AMP-activated protein kinase catalytic subunit alpha-1 (Q13131 whole entry, looked up): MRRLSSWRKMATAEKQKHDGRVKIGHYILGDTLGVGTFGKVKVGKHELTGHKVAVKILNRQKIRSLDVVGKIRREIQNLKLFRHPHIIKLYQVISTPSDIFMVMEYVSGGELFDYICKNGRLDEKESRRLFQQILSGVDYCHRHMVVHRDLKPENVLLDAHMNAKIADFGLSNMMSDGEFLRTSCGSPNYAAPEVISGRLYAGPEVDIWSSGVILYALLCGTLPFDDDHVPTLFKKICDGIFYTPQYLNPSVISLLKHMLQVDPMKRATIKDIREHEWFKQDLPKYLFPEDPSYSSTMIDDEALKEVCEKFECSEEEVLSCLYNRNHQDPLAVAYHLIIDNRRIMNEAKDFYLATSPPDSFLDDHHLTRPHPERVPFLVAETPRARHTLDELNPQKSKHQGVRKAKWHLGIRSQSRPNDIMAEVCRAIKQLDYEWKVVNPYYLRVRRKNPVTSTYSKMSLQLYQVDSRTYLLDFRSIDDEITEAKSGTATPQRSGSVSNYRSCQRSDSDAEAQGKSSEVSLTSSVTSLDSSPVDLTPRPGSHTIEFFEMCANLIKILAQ
# [3] = target: T2, Serine/threonine-protein kinase 17B (Homo sapiens) (UniProt O94768); test: Selectivity interaction (Kinase panel (DSF assay)) EUB0001559a STK17B
# T2 sequence (whole entry): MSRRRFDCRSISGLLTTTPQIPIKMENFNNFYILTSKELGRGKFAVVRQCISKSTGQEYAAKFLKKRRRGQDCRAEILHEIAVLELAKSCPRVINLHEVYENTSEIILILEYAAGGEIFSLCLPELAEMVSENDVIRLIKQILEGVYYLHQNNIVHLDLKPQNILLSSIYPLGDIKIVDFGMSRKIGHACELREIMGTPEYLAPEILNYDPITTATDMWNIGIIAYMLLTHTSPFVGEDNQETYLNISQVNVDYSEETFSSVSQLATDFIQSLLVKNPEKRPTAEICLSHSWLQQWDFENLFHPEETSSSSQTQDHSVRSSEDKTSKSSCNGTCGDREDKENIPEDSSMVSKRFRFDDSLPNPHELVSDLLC
# [4] = target: Serine/threonine-protein kinase SIK2 (Homo sapiens) (UniProt Q9H0K1); test: Selectivity interaction (KinomeScan (DiscoverX)) EUB0001079a SIK2; details: at 1 µM
# Sequence of Serine/threonine-protein kinase SIK2 (Homo sapiens) (Q9H0K1 whole entry, looked up): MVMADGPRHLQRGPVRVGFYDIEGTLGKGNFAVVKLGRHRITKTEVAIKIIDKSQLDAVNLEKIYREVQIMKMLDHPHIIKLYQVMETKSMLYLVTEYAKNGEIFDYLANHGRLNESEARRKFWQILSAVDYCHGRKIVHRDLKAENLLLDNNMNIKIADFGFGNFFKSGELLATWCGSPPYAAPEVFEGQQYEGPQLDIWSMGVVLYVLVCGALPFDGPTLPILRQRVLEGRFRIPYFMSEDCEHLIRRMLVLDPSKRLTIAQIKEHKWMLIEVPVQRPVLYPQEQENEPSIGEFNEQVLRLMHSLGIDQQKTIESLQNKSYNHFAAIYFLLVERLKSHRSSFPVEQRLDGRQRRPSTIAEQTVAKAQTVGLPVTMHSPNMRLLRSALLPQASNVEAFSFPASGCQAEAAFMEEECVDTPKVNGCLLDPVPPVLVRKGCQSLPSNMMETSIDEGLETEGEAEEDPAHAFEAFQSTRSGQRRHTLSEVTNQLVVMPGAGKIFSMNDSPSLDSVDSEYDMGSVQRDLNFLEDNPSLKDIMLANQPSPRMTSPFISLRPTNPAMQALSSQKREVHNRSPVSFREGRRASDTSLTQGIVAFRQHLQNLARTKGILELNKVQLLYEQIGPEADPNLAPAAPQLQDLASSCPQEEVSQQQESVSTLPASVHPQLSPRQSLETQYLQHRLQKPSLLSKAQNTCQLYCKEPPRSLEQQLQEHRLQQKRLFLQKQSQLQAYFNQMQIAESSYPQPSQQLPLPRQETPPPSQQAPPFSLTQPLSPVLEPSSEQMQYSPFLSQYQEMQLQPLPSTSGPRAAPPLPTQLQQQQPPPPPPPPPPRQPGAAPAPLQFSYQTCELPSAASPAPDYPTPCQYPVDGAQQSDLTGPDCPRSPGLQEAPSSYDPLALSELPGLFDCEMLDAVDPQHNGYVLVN
# [5] = target: Serine/threonine-protein kinase pim-3 (Homo sapiens) (UniProt Q86V86); test: Selectivity interaction (ProQinase) EUB0000171b PIM3
# [6] = target: Protein kinase C theta type (Homo sapiens, UniProt Q04759); test: Selectivity interaction (ProQinase) EUB0000171b PRKCQ
# Sequence of Protein kinase C theta type (Q04759 whole entry, looked up): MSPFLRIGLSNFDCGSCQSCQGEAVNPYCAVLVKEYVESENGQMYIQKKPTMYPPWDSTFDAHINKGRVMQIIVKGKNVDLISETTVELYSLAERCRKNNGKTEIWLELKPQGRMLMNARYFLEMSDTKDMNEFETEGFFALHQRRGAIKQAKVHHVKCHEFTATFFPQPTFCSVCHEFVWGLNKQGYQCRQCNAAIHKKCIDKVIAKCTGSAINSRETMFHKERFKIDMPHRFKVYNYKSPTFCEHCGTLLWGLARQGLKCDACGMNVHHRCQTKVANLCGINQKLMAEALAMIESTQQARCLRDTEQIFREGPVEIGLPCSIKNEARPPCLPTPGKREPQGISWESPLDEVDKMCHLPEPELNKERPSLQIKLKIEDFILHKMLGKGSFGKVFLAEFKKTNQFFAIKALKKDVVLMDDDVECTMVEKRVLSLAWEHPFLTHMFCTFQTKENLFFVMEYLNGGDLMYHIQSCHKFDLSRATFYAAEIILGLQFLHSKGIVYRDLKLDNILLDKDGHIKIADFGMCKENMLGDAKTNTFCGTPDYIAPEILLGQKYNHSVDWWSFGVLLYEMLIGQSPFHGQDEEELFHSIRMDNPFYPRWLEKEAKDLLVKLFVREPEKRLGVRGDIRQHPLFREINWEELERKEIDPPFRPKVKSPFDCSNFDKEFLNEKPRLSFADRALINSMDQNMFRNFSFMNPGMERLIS
# [7] = target: T3, Inhibitor of nuclear factor kappa-B kinase subunit epsilon (Homo sapiens) (UniProt Q14164); test: Selectivity interaction (Kinase panel (Invitrogen)) EUB0000639a IKBKE; details: at 200 nM
# T3 sequence (whole entry): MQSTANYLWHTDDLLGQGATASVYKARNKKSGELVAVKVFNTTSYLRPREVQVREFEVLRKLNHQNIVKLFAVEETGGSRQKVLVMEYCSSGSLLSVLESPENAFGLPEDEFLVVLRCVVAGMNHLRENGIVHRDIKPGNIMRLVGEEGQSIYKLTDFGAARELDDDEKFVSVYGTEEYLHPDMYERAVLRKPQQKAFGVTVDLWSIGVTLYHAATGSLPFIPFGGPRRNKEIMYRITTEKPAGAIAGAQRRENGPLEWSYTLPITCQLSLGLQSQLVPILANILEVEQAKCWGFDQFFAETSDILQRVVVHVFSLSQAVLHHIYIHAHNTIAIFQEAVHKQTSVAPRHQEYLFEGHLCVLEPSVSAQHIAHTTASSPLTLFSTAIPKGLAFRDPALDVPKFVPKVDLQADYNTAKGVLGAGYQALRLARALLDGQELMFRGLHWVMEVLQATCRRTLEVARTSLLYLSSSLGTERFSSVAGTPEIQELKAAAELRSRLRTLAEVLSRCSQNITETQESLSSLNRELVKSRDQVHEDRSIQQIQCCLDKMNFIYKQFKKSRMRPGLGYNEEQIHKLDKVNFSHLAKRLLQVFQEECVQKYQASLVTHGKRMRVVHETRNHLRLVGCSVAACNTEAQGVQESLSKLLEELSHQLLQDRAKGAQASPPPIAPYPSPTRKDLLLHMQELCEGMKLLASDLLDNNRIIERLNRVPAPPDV
# [8] = target: Cyclin-dependent kinase 16 (Homo sapiens) (UniProt Q00536); test: Selectivity interaction (KinomeScan (DiscoverX)) EUB0000655a CDK16; details: at 10 µM
# Sequence of Cyclin-dependent kinase 16 (Homo sapiens) (Q00536 whole entry): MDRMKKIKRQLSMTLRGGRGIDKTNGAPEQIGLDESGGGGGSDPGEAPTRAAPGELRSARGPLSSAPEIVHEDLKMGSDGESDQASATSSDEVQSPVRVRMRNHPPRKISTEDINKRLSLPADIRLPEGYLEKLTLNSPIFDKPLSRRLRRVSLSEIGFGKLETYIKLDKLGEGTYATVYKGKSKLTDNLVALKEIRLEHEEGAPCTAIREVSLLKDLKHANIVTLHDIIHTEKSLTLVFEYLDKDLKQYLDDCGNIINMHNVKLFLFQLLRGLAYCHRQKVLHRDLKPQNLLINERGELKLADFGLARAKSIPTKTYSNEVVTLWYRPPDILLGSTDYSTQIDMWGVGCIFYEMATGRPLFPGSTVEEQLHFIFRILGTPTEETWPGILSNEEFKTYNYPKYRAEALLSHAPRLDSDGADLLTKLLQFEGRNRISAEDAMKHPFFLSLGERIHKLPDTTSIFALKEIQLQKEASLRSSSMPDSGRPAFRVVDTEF
# [9] = target: Serine/threonine-protein kinase 25 (Homo sapiens) (UniProt O00506); test: Selectivity interaction (KinomeScan (DiscoverX)) EUB0000092b STK25; details: at 10 µM
# Sequence of Serine/threonine-protein kinase 25 (Homo sapiens) (O00506 whole entry, looked up): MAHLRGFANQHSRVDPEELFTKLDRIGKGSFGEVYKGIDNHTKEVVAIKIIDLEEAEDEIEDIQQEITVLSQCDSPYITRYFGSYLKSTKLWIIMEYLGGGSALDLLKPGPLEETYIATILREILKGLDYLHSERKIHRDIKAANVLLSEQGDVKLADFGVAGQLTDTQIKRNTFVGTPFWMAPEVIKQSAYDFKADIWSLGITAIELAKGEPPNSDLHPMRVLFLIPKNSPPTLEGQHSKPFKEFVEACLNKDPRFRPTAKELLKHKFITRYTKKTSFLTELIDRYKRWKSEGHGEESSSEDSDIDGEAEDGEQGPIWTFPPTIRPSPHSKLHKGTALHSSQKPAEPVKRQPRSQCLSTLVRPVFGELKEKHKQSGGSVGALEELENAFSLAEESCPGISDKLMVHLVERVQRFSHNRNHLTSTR
# [10] = target: T4, Dual specificity mitogen-activated protein kinase kinase 4 (Homo sapiens) (UniProt P45985); test: Selectivity interaction (Ambit KINOMEscan and KiNATiv profiling in Jurkat cells) EUB0000090b MAP2K4; format: cell-based; details: at 1 µM
# T4 sequence (whole entry): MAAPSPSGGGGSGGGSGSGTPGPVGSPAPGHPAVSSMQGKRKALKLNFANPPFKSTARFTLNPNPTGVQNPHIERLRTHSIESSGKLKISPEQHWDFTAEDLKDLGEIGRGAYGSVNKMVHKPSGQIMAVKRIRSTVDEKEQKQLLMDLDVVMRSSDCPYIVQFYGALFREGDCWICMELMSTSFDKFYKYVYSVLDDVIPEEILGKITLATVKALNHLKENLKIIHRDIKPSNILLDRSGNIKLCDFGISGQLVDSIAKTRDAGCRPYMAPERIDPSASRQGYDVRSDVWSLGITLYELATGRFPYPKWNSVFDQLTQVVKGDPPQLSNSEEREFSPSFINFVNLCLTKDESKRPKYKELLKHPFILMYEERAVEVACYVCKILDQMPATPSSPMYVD
compound,measurement,setting,value
COCC(=O)NC/C=C/c1ccc2ncnc(Nc3ccc(Oc4ccc(C)nc4)c(C)c3)c2c1 [CP-724714],% of control,[1],91%
same,% of control,[2],89%
CN(C(=O)c1cnn2cccnc12)c1cc2c(cc1N1CCOCC1)C(=O)N(C[C@@H](F)C(C)(C)O)C2,dTM,[3],1 K
Nc1cnc(N2CCc3cc(S(=O)(=O)Nc4c(F)cc(Cl)cc4F)cc(N4CCCC4=O)c32)nc1 [TP-020n],% of control,[4],100%
C=CC(=O)Nc1cccc(C(=O)Nc2ccc(Nc3cc(-c4[nH]c(SC)nc4C)ccn3)cc2)c1,% of control,[5]; at 1 µM,93%
same,% of control,[5]; at 5 µM,82%
same,% of control,[6]; at 1 µM,97%
same,% of control,[6]; at 5 µM,96%
CC[C@@H]1[C@H](F)C(=O)N[C@@H]1COc1nccc2cc(C(N)=O)c(OC)cc12 [ZIMLOVISERTIB],% of inhibition,[7],2.32%
CN(C)CCOc1ccc(-c2nc(-c3ccncc3)c(-c3ccc4c(c3)CC/C4=N\O)[nH]2)cc1,% of control,[8],100%
CCC(=O)N1CCN(c2ccc(-n3c(=O)ccc4cnc5ccc(-c6cnc7ccccc7c6)cc5c43)cc2C(F)(F)F)CC1,% of control,[9],84%
CN(C)C/C=C/C(=O)Nc1ccc(C(=O)N2CCCC(Nc3ncc(Cl)c(-c4c[nH]c5ccccc45)n3)C2)cc1 (configuration not stated),% of control,[10],70%
